Patent publication US10800792B2, “Inhibitors of Bruton's tyrosine kinase and method of their use” (JANSSEN PHARMACEUTICA NV, priority 2015, dated 2020)

Target: unphosphorylated-BTK kinase domain (UP-BTK), GST-tagged human BTK (389-659aa) (Homo sapiens (Human), UniProt Q06187)
Experiment: BTK kinase Lanthascreen binding assay
Settings: pIC50 = negative log of the IC50 in molar, 60 minutes incubation, 50 nM Tracer 236; for IC50: read-out: BTK_I_binding pIC50 (converted)
Outline: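 Tracer-displacement binding assay against the non-phosphorylated enzyme, read by Lanthascreen. Reported: pIC50.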

Sequence of unphosphorylated-BTK kinase domain (UP-BTK), GST-tagged human BTK (389-659aa) (Q06187 389-659): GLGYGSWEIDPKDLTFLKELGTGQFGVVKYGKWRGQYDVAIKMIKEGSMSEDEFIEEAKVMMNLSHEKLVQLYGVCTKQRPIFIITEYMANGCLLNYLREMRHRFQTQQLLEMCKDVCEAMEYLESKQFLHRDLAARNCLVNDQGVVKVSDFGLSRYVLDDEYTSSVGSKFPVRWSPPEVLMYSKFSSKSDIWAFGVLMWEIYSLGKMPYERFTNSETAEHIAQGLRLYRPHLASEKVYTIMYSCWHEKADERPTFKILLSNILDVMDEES

SMILES | BTK_I_binding pIC50 | IC50 [nM]
C=CC(=O)N1CC[C@@H](NC(=O)c2sc3nccc4c3c2NC(=O)N4c2ccc(Oc3c(F)cccc3F)cc2C)C1 [Example 17, (R)—N-(1-Acryloylpyrrolidin-3-yl)-5-(4-(2,6-difluorophenoxy)-2-methylphenyl)-4-oxo-4,5-dihydro-3H-1-thia-3,5,8-triazaacenaphthylene-2-carboxamide] | 7.7 | –
C=CC(=O)N1CCC[C@@H](NC(=O)c2sc3nccc4c3c2NC(=O)N4c2ccc(Oc3ccccc3)cc2)C1 [Example 18, (R)—N-(1-Acryloylpiperidin-3-yl)-4-oxo-5-(4-phenoxyphenyl)-4,5-dihydro-3H-1-thia-3,5,8-triazaacenaphthylene-2-carboxamide] | 8.2 | –
C=CC(=O)N1CCC[C@@H](NC(=O)c2sc3nccc4c3c2NC(=O)N4c2ccc(Oc3ccccc3CC)cc2C)C1 [Example 19, (R)—N-(1-Acryloylpiperidin-3-yl)-5-(4-(2-ethylphenoxy)-2-methylphenyl)-4-oxo-4,5-dihydro-3H-1-thia-3,5,8-triazaacenaphthylene-2-carboxamide] | – | 63.1
C=CC(=O)N1CCC[C@@H](NC(=O)c2sc3nccc4c3c2NC(=O)N4c2c(C)cc(Oc3ccccc3)cc2F)C1 [Example 20, (R)—N-(1-Acryloylpiperidin-3-yl)-5-(2-fluoro-6-methyl-4-phenoxyphenyl)-4-oxo-4,5-dihydro-3H-1-thia-3,5,8-triazaacenaphthylene-2-carboxamide] | 7.4 | –
Cc1cc(Oc2ccccc2)ccc1N1C(=O)Nc2c(C(=O)N[C@@H]3CCCN(C(=O)/C(C#N)=C/C4(C)COC4)C3)sc3nccc1c23 [Example 21, (R,E)-N-(1-(2-cyano-3-(3-methyloxetan-3-yl)acryloyl)piperidin-3-yl)-5-(2-methyl-4-phenoxyphenyl)-4-oxo-4,5-dihydro-3H-1-thia-3,5,8-triazaacenaphthylene-2-carboxamide] | 7.7 | –
C=CC(=O)N1CC[C@@H](NC(=O)c2sc3nccc4c3c2NC(=O)N4c2ccc(Oc3cccc4ccoc34)cc2C)C1 [Example 22, (R)—N-(1-Acryloylpyrrolidin-3-yl)-5-(4-(benzofuran-7-yloxy)-2-methylphenyl)-4-oxo-4,5-dihydro-3H-1-thia-3,5,8-triazaacenaphthylene-2-carboxamide] | 7.4 | –
C=C(Cl)C(=O)N1CCC[C@@H](NC(=O)c2sc3nccc4c3c2NC(=O)N4c2ccc(Oc3ccccc3)cc2C)C1 [Example 26, (R)—N-(1-(2-Chloroacryloyl)piperidin-3-yl)-5-(2-methyl-4-phenoxyphenyl)-4-oxo-4,5-dihydro-3H-1-thia-3,5,8-triazaacenaphthylene-2-carboxamide] | – | 50.1
Cc1cc(Oc2ccccc2)ccc1N1C(=O)Nc2c(C(=O)N[C@@H]3CCCN(C(=O)/C=C/CN)C3)sc3nccc1c23 [Example 27, (R,E)-N-(1-(4-Aminobut-2-enoyl)piperidin-3-yl)-5-(2-methyl-4-phenoxyphenyl)-4-oxo-4,5-dihydro-3H-1-thia-3,5,8-triazaacenaphthylene-2-carboxamide] | – | 50.1
Cc1cc(Oc2ccccc2)ccc1N1C(=O)Nc2c(C(=O)N[C@@H]3CCN(C(=O)/C=C/CO)C3)sc3nccc1c23 [Example 30, (R,E)-N-(1-(4-Hydroxybut-2-enoyl)pyrrolidin-3-yl)-5-(2-methyl-4-phenoxyphenyl)-4-oxo-4,5-dihydro-3H-1-thia-3,5,8-triazaacenaphthylene-2-carboxamide] | 7.6 | –
Cc1cc(Oc2ccccc2)ccc1N1C(=O)Nc2c(C(=O)NC3COCCN(C#N)C3)sc3nccc1c23 (stereo not drawn) [Example 31, N-(4-Cyano-1,4-oxazepan-6-yl)-5-(2-methyl-4-phenoxyphenyl)-4-oxo-4,5-dihydro-3H-1-thia-3,5,8-triazaacenaphthylene-2-carboxamide] | – | 20
C=CC(=O)N1CCC[C@@H](NC(=O)c2sc3nccc4c3c2NC(=O)N4c2ccc(OC3CCCCC3)cc2C)C1 [Example 32, (R)—N-(1-Acryloylpiperidin-3-yl)-5-(4-(cyclohexyloxy)-2-methylphenyl)-4-oxo-4,5-dihydro-3H-1-thia-3,5,8-triazaacenaphthylene-2-carboxamide] | – | 50.1
C=CC(=O)N1CCC[C@@H](NC(=O)c2sc3nccc4c3c2NC(=O)N4c2ccc(OC(C)C)cc2C)C1 [Example 33, (R)—N-(1-Acryloylpiperidin-3-yl)-5-(4-isopropoxy-2-methylphenyl)-4-oxo-4,5-dihydro-3H-1-thia-3,5,8-triazaacenaphthylene-2-carboxamide] | – | 31.6
C=CC(=O)N1C[C@H](NC(=O)c2sc3nccc4c3c2NC(=O)N4c2ccc(Oc3ccccc3)cc2C)[C@@H](F)C1 [Example 36, N-((3S,4S)-1-Acryloyl-4-fluoropyrrolidin-3-yl)-5-(2-methyl-4-phenoxyphenyl)-4-oxo-4,5-dihydro-3H-1-thia-3,5,8-triazaacenaphthylene-2-carboxamide] | – | 20
C=CC(=O)N1C[C@@H](F)[C@@H](NC(=O)c2sc3nccc4c3c2NC(=O)N4c2ccc(Oc3ccccc3)cc2C)C1 [Example 37, N-((3S,4R)-1-Acryloyl-4-fluoropyrrolidin-3-yl)-5-(2-methyl-4-phenoxyphenyl)-4-oxo-4,5-dihydro-3H-1-thia-3,5,8-triazaacenaphthylene-2-carboxamide] | 7.6 | –
C=CC(=O)N1CC[C@@H](NC(=O)c2sc3nccc4c3c2NC(=O)N4c2ccc(OC3CCCCC3)cc2C)C1 [Example 39, (R)—N-(1-Acryloylpyrrolidin-3-yl)-5-(4-(cyclohexyloxy)-2-methylphenyl)-4-oxo-4,5-dihydro-3H-1-thia-3,5,8-triazaacenaphthylene-2-carboxamide] | 7.4 | –
COC(C)(C)/C=C(\C#N)C(=O)N1CCC[C@@H](NC(=O)c2sc3nccc4c3c2NC(=O)N4c2ccc(Oc3ccccc3)cc2C)C1 [Example 40, (R,E)-N-(1-(2-Cyano-4-methoxy-4-methylpent-2-enoyl)piperidin-3-yl)-5-(2-methyl-4-phenoxyphenyl)-4-oxo-4,5-dihydro-3H-1-thia-3,5,8-triazaacenaphthylene-2-carboxamide] | 7.6 | –
Cc1cc(Oc2ccccc2)ccc1N1C(=O)Nc2c(C(=O)N[C@@H]3CCCN(C(=O)/C(C#N)=[13CH]/C4CC4)C3)sc3nccc1c23 [Example 41, (R,E)-N-(1-(2-Cyano-3-^13C-cyclopropylacryloyl)piperidin-3-yl)-5-(2-methyl-4-phenoxyphenyl)-4-oxo-4,5-dihydro-3H-1-thia-3,5,8-triazaacenaphthylene-2-carboxamide] | – | 50.1
CC#CC(=O)N1CCC[C@@H](NC(=O)c2sc3nccc4c3c2NC(=O)N4c2ccc(Oc3ccccc3)cc2C)C1 [Example 42, (R)—N-(1-(But-2-ynoyl)piperidin-3-yl)-5-(2-methyl-4-phenoxyphenyl)-4-oxo-4,5-dihydro-3H-1-thia-3,5,8-triazaacenaphthylene-2-carboxamide] | 7.0 | –
